In the oligonucleotide strings, read from the 5' end, every base follows the letter of its sugar. An asterisk marks phosphorothioate; unmarked linkages are phosphodiester. Other units and linkages are bracketed, terminal groups are in braces. A string of capitals states the bases alone. d = 2'-deoxy (DNA); m = 2'-O-methyl; r = 2'-OH (RNA)
Test system: PCSK9 mRNA
Test: PCSK9 siRNA screening in HepG2 cells (lipofectamine 2000 transfection, PCSK9 mRNA by Quantigene, normalized to GAP-DH)
Type: cell-based, human
Details: not given
Procedure, shortened: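 HepG2 cells, grown in MEM with 10% fetal calf serum, antibiotics, non-essential amino acids and sodium pyruvate at 37° C. and 5% CO2, were plated at 2.0×10^4 cells/well in 96-well plates and transfected directly with siRNA using lipofectamine 2000. After 24 hours, cells were lysed and PCSK9 mRNA was measured by Quantigene and normalized to GAP-DH mRNA.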

Substance	IC50 [nM]
AD-9731: PCSK9 siRNA (sense mUrGrGmUrGrArArGrAmUrGrArGmUrGrGmCrGrAdT*dT; antisense rUrCrGrCmCrArCrUmCrArUrCrUrUmCrArCmCrAdT*dT)	0.32

Same assay, conditions: 3 nM siRNA

Substance	Mean percent remaining mRNA transcript at siRNA concentration/in cell type 3 nM/HepG2 [%]
AD-9721: PCSK9 siRNA (sense mCmUrGrArGrGrAmCmCrArGmCrGrGrGmUrAmCmUdT*dT; antisense rArGmUrArCrCrCrGrCrUrGrGrUrCrCrUmCrArGdT*dT)	70
AD-9731: PCSK9 siRNA (sense mUrGrGmUrGrArArGrAmUrGrArGmUrGrGmCrGrAdT*dT; antisense rUrCrGrCmCrArCrUmCrArUrCrUrUmCrArCmCrAdT*dT)	31
AD-9733: PCSK9 siRNA (sense rGrGrArGmCmUrGrGmUrGmCmUrArGmCmCmUmUrGdT*dT; antisense mCrArArGrGrCmUrArGmCrArCmCrArGrCrUrCrCdT*dT)	73

Same assay, conditions: 30 nM siRNA

Substance	Mean percent remaining mRNA transcript at siRNA concentration/in cell type 30 nM/HepG2 [%]
AD-9710: PCSK9 siRNA (sense mCmCmCmUrGrGmCrGrGrGmUrGrGrGmUrAmCrArGdT*dT; antisense rCrUrGmUrArCrCmCrArCrCrCrGrCmCrArGrGrGdT*dT)	111
AD-9711: PCSK9 siRNA (sense mCrGrGmCrArAmCmUmUmCmCrGrGrGrAmCrGrAmUdT*dT; antisense rArUrCrGrUrCrCrCrGrGrArArGrUrUrGrCrCrGdT*dT)	122
AD-9712: PCSK9 siRNA (sense rGrAmCrAmUmCrAmUmUrGrGmUrGmCmCmUmCmCrAdT*dT; antisense rUrGrGrArGrGmCrArCmCrArArUrGrArUrGrUrCdT*dT)	107
AD-9714: PCSK9 siRNA (sense rGrGmUmCrAmCmCrGmCmUrGmCmCrGrGmCrArAmCdT*dT; antisense rGrUrUrGrCrCrGrGmCrArGrCrGrGrUrGrArCrCdT*dT)	106
AD-9715: PCSK9 siRNA (sense mCrAmCmCrGmCmUrGmCmCrGrGmCrArAmCmUmUmCdT*dT; antisense rGrArArGrUrUrGrCrCrGrGmCrArGrCrGrGrUrGdT*dT)	113
AD-9716: PCSK9 siRNA (sense rAmCmCrArAmCmUmUmUrGrGmCmCrGmCmUrGmUrGdT*dT; antisense mCrAmCrArGrCrGrGrCmCrArArArGrUrUrGrGrUdT*dT)	114
AD-9717: PCSK9 siRNA (sense rAmCmUrGmUmCmCmCmUmCmCmUmUrGrArGmCrAmCdT*dT; antisense rGrUrGrCrUmCrArArGrGrArGrGrGrAmCrArGrUdT*dT)	105
AD-9718: PCSK9 siRNA (sense mCmCmUrArGrAmCrAmCmCrArGmCrAmUrAmCrArGdT*dT; antisense rCrUrGmUrArUrGrCrUrGrGrUrGrUrCmUrArGrGdT*dT)	78
AD-9719: PCSK9 siRNA (sense mCrArGrGrGmUmCrAmUrGrGmUmCrAmCmCrGrAmCdT*dT; antisense rGrUrCrGrGrUrGrArCmCrArUrGrArCrCrCrUrGdT*dT)	115
AD-9720: PCSK9 siRNA (sense rGmCmUrGmCmCrGrGmCrArAmCmUmUmCmCrGrGrGdT*dT; antisense rCrCrCrGrGrArArGrUrUrGrCrCrGrGmCrArGrCdT*dT)	92
AD-9721: PCSK9 siRNA (sense mCmUrGrArGrGrAmCmCrArGmCrGrGrGmUrAmCmUdT*dT; antisense rArGmUrArCrCrCrGrCrUrGrGrUrCrCrUmCrArGdT*dT)	87
AD-9722: PCSK9 siRNA (sense rGrArArGrAmUrGrArGmUrGrGmCrGrAmCmCmUrGdT*dT; antisense mCrArGrGrUrCrGrCmCrArCrUmCrArUrCrUrUrCdT*dT)	76
AD-9724: PCSK9 siRNA (sense mCmCmUrGrGmUrGrGrArGrGmUrGmUrAmUmCmUmCdT*dT; antisense rGrArGrAmUrAmCrArCrCrUrCmCrArCmCrArGrGdT*dT)	127
AD-9725: PCSK9 siRNA (sense mUmUmCmUrGrGrAmUrGrGmCrAmUmCmUrArGmCmCdT*dT; antisense rGrGrCmUrArGrArUrGrCmCrArUrCmCrArGrArAdT*dT)	38
AD-9726: PCSK9 siRNA (sense rGmUmCrGmUrGmCmUrGrGmUmCrAmCmCrGmCmUrGdT*dT; antisense mCrArGrCrGrGrUrGrArCmCrArGmCrArCrGrArCdT*dT)	95
AD-9727: PCSK9 siRNA (sense rArGrGrGmUmCrAmUrGrGmUmCrAmCmCrGrAmCmUdT*dT; antisense rArGrUrCrGrGrUrGrArCmCrArUrGrArCrCrCrUdT*dT)	118
AD-9728: PCSK9 siRNA (sense mCrArGmCrGrGmCmCrGrGrGrAmUrGmCmCrGrGmCdT*dT; antisense rGrCrCrGrGmCrArUrCrCrCrGrGrCrCrGrCrUrGdT*dT)	94
AD-9729: PCSK9 siRNA (sense mUmUmUmCmUrGrGrAmUrGrGmCrAmUmCmUrArGmCdT*dT; antisense rGrCmUrArGrArUrGrCmCrArUrCmCrArGrArArAdT*dT)	56
AD-9730: PCSK9 siRNA (sense mCmUmCrArGmCmCrArAmCmCmCrGmCmUmCmCrAmCdT*dT; antisense rGrUrGrGrArGrCrGrGrGrUrUrGrGrCrUrGrArGdT*dT)	85
AD-9731: PCSK9 siRNA (sense mUrGrGmUrGrArArGrAmUrGrArGmUrGrGmCrGrAdT*dT; antisense rUrCrGrCmCrArCrUmCrArUrCrUrUmCrArCmCrAdT*dT)	31

Substance	Mean percent remaining mRNA transcript at siRNA concentration/in cell type 30 nM/HepG2 [%]
AD-9732: PCSK9 siRNA (sense mUmCrGmUrGmCmUrGrGmUmCrAmCmCrGmCmUrGmCdT*dT; antisense rGmCrArGrCrGrGrUrGrArCmCrArGmCrArCrGrAdT*dT)	105
AD-9733: PCSK9 siRNA (sense rGrGrArGmCmUrGrGmUrGmCmUrArGmCmCmUmUrGdT*dT; antisense mCrArArGrGrCmUrArGmCrArCmCrArGrCrUrCrCdT*dT)	78
AD-9734: PCSK9 siRNA (sense mUrGmCmUrArGmCmCmUmUrGmCrGmUmUmCmCrGrAdT*dT; antisense rUrCrGrGrArArCrGmCrArArGrGrCmUrArGmCrAdT*dT)	91
AD-9735: PCSK9 siRNA (sense mCrAmCrGrGmUrAmCmCrGrGrGmCrGrGrAmUrGrAdT*dT; antisense rUmCrArUrCrCrGrCrCrCrGrGmUrArCrCrGrUrGdT*dT)	115
AD-9737: PCSK9 siRNA (sense mUmCmCmUrArGrAmCrAmCmCrArGmCrAmUrAmCrAdT*dT; antisense rUrGmUrArUrGrCrUrGrGrUrGrUrCmUrArGrGrAdT*dT)	68
AD-9738: PCSK9 siRNA (sense rAmCmCrAmCmCrGrGrGrArArAmUmCrGrArGrGrGdT*dT; antisense rCrCrCrUrCrGrArUrUrUrCrCrCrGrGrUrGrGrUdT*dT)	83
AD-9739: PCSK9 siRNA (sense mCrGrArGrGrGmCrArGrGrGmUmCrAmUrGrGmUmCdT*dT; antisense rGrArCmCrArUrGrArCrCrCrUrGrCrCrCrUrCrGdT*dT)	109
AD-9740: PCSK9 siRNA (sense rGrGmCrArAmCmUmUmCmCrGrGrGrAmCrGrAmUrGdT*dT; antisense mCrArUrCrGrUrCrCrCrGrGrArArGrUrUrGrCrCdT*dT)	198
AD-9741: PCSK9 siRNA (sense mUmUmCmCrGrGrGrAmCrGrAmUrGmCmCmUrGmCmCdT*dT; antisense rGrGmCrArGrGmCrArUrCrGrUrCrCrCrGrGrArAdT*dT)	130
AD-9742: PCSK9 siRNA (sense rArGmCrAmCmCmUrGmCmUmUmUrGmUrGmUmCrAmCdT*dT; antisense rGrUrGrAmCrAmCrArArArGmCrArGrGrUrGrCrUdT*dT)	127
AD-9743: PCSK9 siRNA (sense rAmUrGmCmUrGmUmCmUrGmCmCrGrArGmCmCrGrGdT*dT; antisense rCrCrGrGrCrUrCrGrGmCrArGrAmCrArGmCrArUdT*dT)	104
AD-9744: PCSK9 siRNA (sense rGrArGmCrAmUrGrGrArAmUmCmCmCrGrGmCmCmCdT*dT; antisense rGrGrGrCrCrGrGrGrArUrUrCmCrArUrGrCrUrCdT*dT)	91
AD-9745: PCSK9 siRNA (sense mUmCrArGrGrArGmCmCrGrGrGrAmCrGmUmCrArGdT*dT; antisense rCrUrGrArCrGrUrCrCrCrGrGrCrUrCrCrUrGrAdT*dT)	56
AD-9746: PCSK9 siRNA (sense mCrArGrGrArGmCmCrGrGrGrAmCrGmUmCrArGmCdT*dT; antisense rGrCrUrGrArCrGrUrCrCrCrGrGrCrUrCrCrUrGdT*dT)	89
AD-9747: PCSK9 siRNA (sense mUmCmUrGrGrAmUrGrGmCrAmUmCmUrArGmCmCrAdT*dT; antisense rUrGrGrCmUrArGrArUrGrCmCrArUrCmCrArGrAdT*dT)	63
AD-9748: PCSK9 siRNA (sense mCmUrGmUmCmCmCmUmCmCmUmUrGrArGmCrAmCmCdT*dT; antisense rGrGrUrGrCrUmCrArArGrGrArGrGrGrAmCrArGdT*dT)	103
AD-9749: PCSK9 siRNA (sense rGmUmCrArGmCmUmCmCrArGrGmCrGrGmUmCmCmUdT*dT; antisense rArGrGrArCrCrGrCrCrUrGrGrArGrCrUrGrArCdT*dT)	105
AD-9750: PCSK9 siRNA (sense mCrGmUmCrArGmCmUmCmCrArGrGmCrGrGmUmCmCdT*dT; antisense rGrGrArCrCrGrCrCrUrGrGrArGrCrUrGrArCrGdT*dT)	96
AD-9751: PCSK9 siRNA (sense mCmUrGrGmUrGrGrArGrGmUrGmUrAmUmCmUmCmCdT*dT; antisense rGrGrArGrAmUrAmCrArCrCrUrCmCrArCmCrArGdT*dT)	60

From patent US20120016009A1, “Optimized Methods For Delivery Of DSRNA Targeting The PCSK9 Gene” (priority 2008, published 2012)
